Drawing on the supplement of paper PMC10702517, this text covers chemical recovery for 56 compounds.

This data set in a line: chemical recovery from spiked human plasma; higher = better extraction. The note with it: pooled human plasma.
The mark [1] stands for this setting: extraction method: solvent precipitation (ACN + hexane).
Where [2] appears, read: extraction method: SPE only (HLB 96-well).
Where [3] appears, read: extraction method: SPE only (HLB 96-well), PES comparison experiment.
The mark [4] stands for this setting: extraction method: PES+SPE (3 d PDMS equilibration then HLB SPE).

Each structure is given as a SMILES string. ± gives the standard deviation.

For the compound `c1ccc2sc(SN3CCOCC3)nc2c1` [2-Morpholinothiobenzothiazole], the chemical recovery under setting [1] stood at 139 ± 8.9%.

`Nc1ccccc1[N+](=O)[O-]` [2-Nitroaniline] registered a chemical recovery under setting [2] of 25.1 ± 5.2%.

On to `O=C1Cc2ccccc2N1` [2-Oxindole], for which, under setting [1], the chemical recovery was found to be 39.1 ± 5.5%.

For `N[C@@H](Cc1cc(I)c(Oc2ccc(O)c(I)c2)c(I)c1)C(=O)O` [3,3',5-Triiodo-L-thyronine], under setting [1], the chemical recovery was 56.3 ± 2.7%.

Consider `Cc1cc(-c2ccc(N)c(C)c2)ccc1N` [3,3'-Dimethylbenzidine], for which the chemical recovery came out at 37.1 ± 6.7% under setting [2], 20.3 ± 2.9% under setting [3] and 61.7 ± 6.9% under setting [1].

In the case of `Oc1cc(Cl)c(Cl)c(Cl)c1` [3,4,5-Trichlorophenol], the chemical recovery runs as follows: under setting [4], 58.9 ± 7.8%; under setting [2], 45 ± 3.1%; under setting [1], 70.1 ± 3.9%.

Regarding `Oc1ccc(Cl)cc1O` [3,4-Dihydroxy-chlorobenzene], the chemical recovery was determined as 5.54 ± 1.6% under setting [4] and 39.4 ± 4.7% under setting [2].

Turning to `CC(=O)c1cc(C(C)(C)C)c(O)c(C(C)(C)C)c1` [3,5-Di-tert-butyl-4'-hydroxyacetophenone], the chemical recovery under setting [2] is 20.1 ± 4.9% and the chemical recovery under setting [1] stood at 42.1 ± 2.7%.

Take `Cc1ccc2ccc3ccc(C)cc3c2c1` [3,6-dimethylphenanthrene]: the chemical recovery by setting is: under setting [4], 36.5 ± 13%; under setting [2], 2.62 ± 0.48%; under setting [1], 71.5 ± 5%.

Take `Cc1ccc(N)cc1Cl` [3-Chloro-4-methylaniline]: the chemical recovery stood at 56.7 ± 3.6% under setting [4], 45.3 ± 2.8% under setting [2] and 76.7 ± 4.1% under setting [1].

With `CN(C)C(=O)NC1CCCCC1` [3-Cyclohexyl-1,1-dimethylurea], the chemical recovery under setting [4] was 28.9 ± 9.2%, the chemical recovery under setting [2] was found to be 35.4 ± 2.2% and the chemical recovery under setting [1] is 61.2 ± 1.1%.

Consider `Oc1cc(-c2ccc(Cl)cc2)ccc1Cl` [3-Hydroxy-4,4'-dichlorobiphenyl], for which the chemical recovery under setting [2] turned out to be 35.7 ± 2.3% and the chemical recovery under setting [1] came to 42.3 ± 3.4%.

Regarding `Cc1ccc2cc3c(ccc4ccccc43)c3c2c1CC3` [3-Methylcholanthrene], the chemical recovery turned out to be 0.839 ± 0.34% under setting [2] and 58.3 ± 3.3% under setting [1].

With `O=C(O)CCC(F)(F)C(F)(F)C(F)(F)F` [3.3-FTCA], the chemical recovery reads like this: under setting [4], 2.63 ± 2.7%; under setting [2], 0.288 ± 0.082%.

Consider `COc1cc(NC(=O)CC(C)=O)c(OC)cc1Cl` [4'-Chloro-2',5'-dimethoxyacetoacetanilide], for which the chemical recovery came to 21.7 ± 5% under setting [4] and 43.2 ± 5.5% under setting [2].

On to `CC(C)(c1ccccc1)c1ccc(Nc2ccc(C(C)(C)c3ccccc3)cc2)cc1` [4,4'-Bis(alpha,alpha-dimethylbenzyl)diphenylamine], for which, under setting [2], the chemical recovery stood at 2.12 ± 1.1%.

Consider `ClC(Cl)=C(c1ccc(Cl)cc1)c1ccc(Cl)cc1` [4,4'-DDE], for which the chemical recovery under setting [4] came to 49.3 ± 15%, the chemical recovery under setting [2] stood at 0.779 ± 0.23% and the chemical recovery under setting [1] amounted to 41.1 ± 2.4%.

With `ClC=C(c1ccc(Cl)cc1)c1ccc(Cl)cc1` [4,4'-DDMU], the chemical recovery under setting [4] came to 54.3 ± 19%, the chemical recovery under setting [2] was 1.65 ± 0.55% and the chemical recovery under setting [1] worked out at 30.1 ± 2.7%.

In the case of `Clc1ccc(C(c2ccc(Cl)cc2)C(Cl)(Cl)Cl)cc1` [4,4'-DDT], the chemical recovery runs as follows: under setting [4], 81.7 ± 22%; under setting [2], 3.49 ± 1.1%; under setting [1], 56.7 ± 8.1%.

Turning to `Nc1ccc(Cc2ccc(N)cc2)cc1` [4,4'-Methylenedianiline], the chemical recovery was 9.55 ± 0.81% under setting [2] and 31.9 ± 11% under setting [1].

Consider `Nc1ccc(Oc2ccc(N)cc2)cc1` [4,4'-Oxydianiline], for which the chemical recovery by setting is: under setting [4], 0.849 ± 0.6%; under setting [2], 8.07 ± 0.83%; under setting [1], 26.3 ± 9%.

The compound `Clc1ccc(C(c2ccc(Cl)cc2)C(Cl)(Cl)Cl)cc1` [4,4-DDT] had a chemical recovery under setting [3] of 52.8 ± 20%.

For the compound `CC(=O)CCc1ccc(O)cc1` [4-(4-Hydroxyphenyl)butan-2-one], the chemical recovery by setting is: under setting [4], 64.8 ± 5.4%; under setting [2], 60 ± 5.2%; under setting [1], 64.5 ± 4%.

Take `CN(C)c1ccncc1` [4-(Dimethylamino)pyridine]: the chemical recovery is, setting by setting: under setting [4], 0.689 ± 0.15%; under setting [2], 2.53 ± 2.1%; under setting [1], 60.5 ± 4%.

On to `CC(=O)N1CCOCC1` [4-Acetylmorpholine], for which the chemical recovery under setting [2] is 3.35 ± 3.7%.

As to `Cc1cc(N)c2ccccc2n1` [4-Amino-2-methylquinoline], the chemical recovery under setting [4] is 27.3 ± 3.6%, the chemical recovery under setting [2] was determined as 32.7 ± 2.9% and the chemical recovery under setting [1] turned out to be 73.8 ± 2.2%.

`CN(C)S(=O)(=O)c1ccc(N)cc1` [4-Amino-N,N-dimethylbenzenesulfonamide]: the chemical recovery reads like this: under setting [4], 69.6 ± 6.2%; under setting [2], 63.7 ± 4.4%.

In the case of `CN(C)S(=O)(=O)c1ccc(N)cc1` [4-Amino-NN-dimethylbenzenesulfonamide], the chemical recovery under setting [4] was determined as 51.6 ± 4%, the chemical recovery under setting [2] came out at 45.4 ± 4.2% and the chemical recovery under setting [1] was 77.3 ± 4%.

For `Cc1c(N)c(=O)n(-c2ccccc2)n1C` [4-Aminoantipyrine], the chemical recovery was determined as 6.85 ± 1.7% under setting [4], 8.59 ± 2.6% under setting [2] and 67.1 ± 4.8% under setting [1].

Take `Nc1ccc(Nc2ccccc2)cc1` [4-Aminodiphenylamine]: the chemical recovery runs as follows: under setting [4], 1.74 ± 1.1%; under setting [2], 1.91 ± 0.31%.

In the case of `COc1cc(Cl)c(OC)cc1N` [4-Chloro-2,5-dimethoxyaniline], the chemical recovery is, setting by setting: under setting [4], 11 ± 2.9%; under setting [2], 26.5 ± 3.5%; under setting [1], 55 ± 2.7%.

For `CC(C)(c1ccccc1)c1ccc(O)cc1` [4-Cumylphenol], the chemical recovery under setting [2] is 30.6 ± 7.2% and the chemical recovery under setting [1] was 46.6 ± 4.5%.

Turning to `Cc1c(C=O)c(=O)n(-c2ccccc2)n1C` [4-Formyl-antipyrine], the chemical recovery runs as follows: under setting [4], 41.3 ± 3.5%; under setting [2], 34.4 ± 4.1%; under setting [1], 69.5 ± 2.1%.

For the compound `Oc1c(Cl)cc(-c2ccc(Cl)cc2)cc1Cl` [4-Hydroxy-3,4',5-trichlorobiphenyl], the chemical recovery under setting [4] worked out at 46.3 ± 7.3%, the chemical recovery under setting [2] is 36.1 ± 5.9% and the chemical recovery under setting [1] turned out to be 27.9 ± 1.8%.

Turning to `O=C(c1ccccc1)c1ccc(O)cc1` [4-Hydroxybenzophenone], the chemical recovery amounted to 65.9 ± 5.4% under setting [4], 53 ± 4.1% under setting [2] and 77.7 ± 3.6% under setting [1].

As to `Oc1cccc2n[nH]nc12` [4-Hydroxybenzotriazole], the chemical recovery under setting [2] turned out to be 32.8 ± 2.4%, the chemical recovery under setting [3] stood at 48 ± 8.1% and the chemical recovery under setting [1] was 3.14 ± 2.8%.

For the compound `Oc1ccnc2ccccc12` [4-Hydroxyquinoline], the chemical recovery under setting [2] stood at 44.7 ± 1.7%.

With `CC(C)c1ccc(N)cc1` [4-Isopropylaniline], the chemical recovery is, setting by setting: under setting [4], 6.67 ± 1.6%; under setting [2], 15.1 ± 2.4%; under setting [3], 18.2 ± 5.3%; under setting [1], 23.6 ± 3.4%.

For `COc1cc([N+](=O)[O-])ccc1O` [4-Nitroguaiacol], the chemical recovery reads like this: under setting [4], 45.3 ± 6.9%; under setting [2], 39.5 ± 6.2%; under setting [1], 82.7 ± 14%.

For `CC(C)(C)CC(C)(C)c1ccc(O)cc1` [4-Tert-Octylphenol], the chemical recovery under setting [2] amounted to 25.4 ± 2%.

As to `CC1(C)C(=O)NC(=O)NC1=O` [5,5-Dimethylbarbituric-acid], the chemical recovery was found to be 5.81 ± 5% under setting [4], 8.69 ± 8.3% under setting [2] and 39.8 ± 10% under setting [1].

Under setting [2], `Oc1c(Cl)cc(Cl)c2cccnc12` [5,7-Dichloro-8-hydroxyquinoline] gave a chemical recovery of 21.3 ± 1.8%.

Consider `Nc1cccc2cc(S(=O)(=O)O)ccc12` [5-Aminonaphthalene-2-sulfonic acid], for which the chemical recovery by setting is: under setting [2], 10.5 ± 3.9%; under setting [3], 18.3 ± 2.4%; under setting [1], 65 ± 2.7%.

In the case of `Cc1c2ccccc2cc2c1cc(Br)c1ccccc12` [5-Bromo-7-methylbenzo[a]anthracene], the chemical recovery by setting is: under setting [2], 1.01 ± 0.069%; under setting [1], 58.3 ± 3.7%.

`c1ccc2c(c1)[nH]c1ccncc12` [5-Carboline]: the chemical recovery was determined as 25.1 ± 5% under setting [4], 34.1 ± 2.7% under setting [2], 31.2 ± 3.7% under setting [3] and 72.4 ± 3.9% under setting [1].

In the case of `Oc1ccc(Cl)c2cccnc12` [5-Chloro-8-hydroxyquinoline], the chemical recovery reads like this: under setting [4], 2.63 ± 3.2%; under setting [2], 12.2 ± 4.9%.

Turning to `Oc1ccc2[nH]ccc2c1` [5-Hydroxyindole], the chemical recovery under setting [1] came out at 39.3 ± 5.3%.

As to `O=C(O)c1cc(C(=O)O)cc([N+](=O)[O-])c1` [5-Nitroisophthalic-acid], the chemical recovery under setting [4] came to 79.2 ± 17%, the chemical recovery under setting [2] turned out to be 50.5 ± 17% and the chemical recovery under setting [1] came to 0.332 ± 0.35%.

With `CC(C)N1C(=O)c2cc(O)ccc2NS1(=O)=O` [6-Hydroxybentazone], the chemical recovery is, setting by setting: under setting [4], 29 ± 4%; under setting [2], 33.9 ± 7.6%; under setting [1], 70.3 ± 3.6%.

On to `Sc1ncnc2nc[nH]c12` [6-Mercaptopurine], for which the chemical recovery under setting [4] was determined as 0.00575 ± 0.005%, the chemical recovery under setting [2] was found to be 0.069 ± 0.0096% and the chemical recovery under setting [1] was found to be 0.144 ± 0.25%.

The compound `C[C@]12CCC(=O)C=C1[C@H](O)C[C@@H]1[C@@H]2[C@@H](O)C[C@@]2(C)[C@H]1CC[C@]2(O)C(=O)CO` [6-beta-Hydroxycortisol] gave a chemical recovery under setting [3] of 45.1 ± 7.2%.

`O=S(=O)(O)CCC(F)(F)C(F)(F)C(F)(F)C(F)(F)C(F)(F)C(F)(F)F` [6.2 fluorotelomer sulfonic acid]: the chemical recovery under setting [2] amounted to 35.9 ± 1.7%, the chemical recovery under setting [3] was determined as 43.1 ± 5% and the chemical recovery under setting [1] stood at 75.6 ± 2.9%.

In turn, `O=P(O)(OCCC(F)(F)C(F)(F)C(F)(F)C(F)(F)C(F)(F)C(F)(F)F)OCCC(F)(F)C(F)(F)C(F)(F)C(F)(F)C(F)(F)C(F)(F)F` [6.2-Fluorotelomerphosphate-diester] displayed a chemical recovery under setting [2] of 7.04 ± 2.1%.

`CC(C)CC(C)NC1=CC(=O)C(Nc2ccccc2)=CC1=O` (stereo not drawn) [6PPD-quinone]: the chemical recovery reads like this: under setting [4], 16.3 ± 4.4%; under setting [2], 51.9 ± 4.4%; under setting [1], 79.3 ± 4%.

With `CCN(CC)c1ccc2c(C)cc(=O)oc2c1` [7-Diethylamino-4-methylcoumarin], the chemical recovery runs as follows: under setting [4], 65.9 ± 13%; under setting [2], 94 ± 5.9%; under setting [3], 47.7 ± 7.5%; under setting [1], 78.3 ± 2.5%.

Turning to `C[C@H](CCC(=O)O)[C@H]1CC[C@H]2[C@@H]3C(=O)C[C@@H]4C[C@H](O)CC[C@]4(C)[C@H]3CC[C@]12C` [7-Oxolithocholic-acid], the chemical recovery turned out to be 51.1 ± 5.2% under setting [4], 38.6 ± 2.2% under setting [2] and 65.4 ± 3.4% under setting [1].
